Test results: paper PMC12645437, “Orthogonal IMiD-Degron Pairs Induce Selective Protein Degradation in Cells” (ACS Chemical Biology, 2025)

System: library of 8380 IKZF3 degrons fused to EGFP in Jurkat cells
Assay: Pooled mutant ZF degron library screen (FACS EGFPlow vs EGFP+, NGS), 18 h;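 on logFC: Log2 fold change of EGFPlow over EGFP+ representation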
Assay type: cell-based, human

O=C1CCC(N2C(=O)c3ccccc3C2=O)C(=O)N1 (centres unmarked) [Compound 1, thalidomide, reference compound]
logFC (degron residues 146/147/149/150/152/153/154/155/167: FADQGAPFL): -2.41 | logFC (degron residues 146/147/149/150/152/153/154/155/167: FADQGAQFL): -3.13 | logFC (degron residues 146/147/149/150/152/153/154/155/167: FADQGARFL): -2.69 | logFC (degron residues 146/147/149/150/152/153/154/155/167: FADQGASFL): -3.41 | logFC (degron residues 146/147/149/150/152/153/154/155/167: FADQGATFL): -2.79 | logFC (degron residues 146/147/149/150/152/153/154/155/167: FADQGAVFL): -2.29 | logFC (degron residues 146/147/149/150/152/153/154/155/167: FADQGAWFL): -2.86 | logFC (degron residues 146/147/149/150/152/153/154/155/167: FADQGAYFL): -2.43 | logFC (degron residues 146/147/149/150/152/153/154/155/167: FADVGAAFL): -1.13 | logFC (degron residues 146/147/149/150/152/153/154/155/167: FADVGACFL): -2.56 | logFC (degron residues 146/147/149/150/152/153/154/155/167: FADVGADFL): -2.99 | logFC (degron residues 146/147/149/150/152/153/154/155/167: FADVGAEFL): -2.38 | logFC (degron residues 146/147/149/150/152/153/154/155/167: FADVGAFFL): -1.98 | logFC (degron residues 146/147/149/150/152/153/154/155/167: FADVGAGFL): -2.06 | logFC (degron residues 146/147/149/150/152/153/154/155/167: FADVGAHFL): -2.25 | logFC (degron residues 146/147/149/150/152/153/154/155/167: FADVGAIFL): -1.83 | logFC (degron residues 146/147/149/150/152/153/154/155/167: FADVGAKFL): -1.45 | logFC (degron residues 146/147/149/150/152/153/154/155/167: FADVGALFL): -2.47 | logFC (degron residues 146/147/149/150/152/153/154/155/167: FADVGAMFL): -2.29 | logFC (degron residues 146/147/149/150/152/153/154/155/167: FADVGANFL): -2.15 | logFC (degron residues 146/147/149/150/152/153/154/155/167: FADVGAPFL): -0.92 | logFC (degron residues 146/147/149/150/152/153/154/155/167: FADVGAQFL): -1.67 | logFC (degron residues 146/147/149/150/152/153/154/155/167: FADVGARFL): -1.19 | logFC (degron residues 146/147/149/150/152/153/154/155/167: FADVGASFL): -1.27 | logFC (degron residues 146/147/149/150/152/153/154/155/167: FADVGATFL): -1.78 | logFC (degron residues 146/147/149/150/152/153/154/155/167: FADVGAVFL): -2.08 | logFC (degron residues 146/147/149/150/152/153/154/155/167: FADVGAWFL): -2.99 | logFC (degron residues 146/147/149/150/152/153/154/155/167: FADVGAYFL): -2.07 | Log2FC (degron residues 146/147/149/150/152/153/154/155/167: FQEIGAPFL): 3.7224 | Log2FC (degron residues 146/147/149/150/152/153/154/155/167: FQEIGARFL): 3.7041 | Log2FC (degron residues 146/147/149/150/152/153/154/155/167: FQEIGASFL): 3.7484 | Log2FC (degron residues 146/147/149/150/152/153/154/155/167: FQEVGAQFL): 3.7719 | Log2FC (degron residues 146/147/149/150/152/153/154/155/167: FQEVGARFL): 3.7061 | Log2FC (degron residues 146/147/149/150/152/153/154/155/167: FQEVGATFL): 3.7446 | Log2FC (degron residues 146/147/149/150/152/153/154/155/167: FQEVGAVFL): 3.7106 | Log2FC (degron residues 146/147/149/150/152/153/154/155/167: FQNIGAIFL): 3.8114 | Log2FC (degron residues 146/147/149/150/152/153/154/155/167: FQNIGAPFL): 3.7088 | Log2FC (degron residues 146/147/149/150/152/153/154/155/167: FQNIGATFL, listed as Thal): 3.867 | Log2FC (degron residues 146/147/149/150/152/153/154/155/167: FQNIGATFL, listed as Thalidomide): 3.8667 | Log2FC (degron residues 146/147/149/150/152/153/154/155/167: FQPIGACFL): 3.7711 | Log2FC (degron residues 146/147/149/150/152/153/154/155/167: FQPIGADFL, listed as Thal): 3.806 | Log2FC (degron residues 146/147/149/150/152/153/154/155/167: FQPIGADFL, listed as Thalidomide): 3.8059 | Log2FC (degron residues 146/147/149/150/152/153/154/155/167: FQPIGAIFL): 3.7924 | Log2FC (degron residues 146/147/149/150/152/153/154/155/167: FQPIGASFL (QPIS), listed as Thal): 3.79 | Log2FC (degron residues 146/147/149/150/152/153/154/155/167: FQPIGASFL (QPIS), listed as Thalidomide): 3.7900 | Log2FC (degron residues 146/147/149/150/152/153/154/155/167: FQPVGAEFL): 3.7612 | Log2FC (degron residues 146/147/149/150/152/153/154/155/167: FQPVGAKFL, listed as Thal): 3.962 | Log2FC (degron residues 146/147/149/150/152/153/154/155/167: FQPVGAKFL, listed as Thalidomide): 3.9618 | Log2FC (degron residues 146/147/149/150/152/153/154/155/167: FQPVGAPFL, listed as Thal): 3.872 | Log2FC (degron residues 146/147/149/150/152/153/154/155/167: FQPVGAPFL, listed as Thalidomide): 3.8717 | Log2FC (degron residues 146/147/149/150/152/153/154/155/167: FQPVGATFL): 3.7941 | Log2FC (degron residues 146/147/149/150/152/153/154/155/167: FQPVGAVFL): 3.7460 | Log2FC (degron residues 146/147/149/150/152/153/154/155/167: LQPIGFVCL): 3.7517
